Consider 6 compounds from patent US20240174622A1, “COMPOUND AND RADIOACTIVE LABELING COMPOUND” (NIHON MEDI-PHYSICS CO., LTD., priority 2021, published 2024).

The conditions of data set [1]: compared with one hour after administration; EJNMMI Res 2012, J Nucl Med 2017; cited from earlier work.
Data set [2] concerns LNCaP tumor. Format: in vivo, mouse. To be noted: for time after administration at which a significant difference in tumor volume from the saline-administered group was observed: 3.7 MBq, tail vein. As to the method:
LNCaP tumor-implanted mice were administered saline solutions (100 μL) of [^90Y]Y-PSMA-DA1 (3.7 MBq) or [^90Y]Y-PSMA-DB (3.7 MBq) obtained by the method described above from the tail vein (n=7). As the control group, LNCaP tumor-implanted mice were administered 100 μL of saline from the tail vein (n=7). After administration of the ^90Y-labeling compound, the tumor volume and body weight were measured 3 times per week. The tumor volume was calculated based on the calculation formula “(tumor volume)=[(long side) x (short side) 2/2]”.

For data set [3], the system named is LNCaP tumor-transplanted mouse. Kind of data set: Internal radioactivity distribution using LNCaP tumor-transplanted mouse. Format: in vivo. A digest of the protocol: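 Male SCID mice bearing subcutaneous LNCaP or PC-3 xenografts (40–60 days) received the 111In-labelled compound i.v. via tail vein (185–259 kBq in saline; n=2–3). Blood and organs collected at 1 to 192 hours post-dose, weighed and counted. Uptake expressed as %ID/g.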

The target of data set [4] is human serum albumin (HSA) (Homo sapiens, UniProt P02768). Description: Evaluation of binding to albumin (HSA solution, PBS control). To be noted: left to stand in HSA solution (45 mg/mL). A digest of the protocol:
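Radiolabelled compound incubated with human albumin in PBS (PBS alone as control), then spun through a Sephadex G-100 or G-50 spin column at 1500×g, 4° C., 2 min. Radioactivity of column and eluate counted by gamma counter; albumin-bound compound passes into the eluate.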

Data set [5] relates to LNCaP tumor. Description: Evaluation of suppressing tumor growth by 225Ac-labeling compound. To be noted: 20 kBq, tail vein. In kind it is in vivo, mouse. The procedure:
[^225Ac]Ac-PSMA-DA1 (20 kBq) or [^225Ac]Ac-PSMA-DB (20 kBq) obtained by the above method was dissolved in 5% ethanol-containing acetate buffer (158 mM, pH 6.5, 100 μL), and the solution was administered to LNCaP tumor-transplanted mice from the tail vein (n=6 or 5). As the control group, 100 μL of 5% ethanol-containing acetate buffer (158 mM, pH 6.5) was administered to LNCaP tumor-transplanted mice from the tail vein (n=4).
After administration of the ^225Ac-labeling compound, the tumor volume and body weight were measured 2 times per week. The tumor volumes on the day when administration of ^225Ac-labeling compound was started were 75.3±26.0, 80.6±20.8, and 91.1±15.9 mm^3 for the groups administered [^225Ac]Ac-PSMA-DA1, [^225Ac]Ac-PSMA-DB, and 5% ethanol-containing acetate buffer, respectively.

Molecules are shown by their SMILES.

Chain of human serum albumin (HSA) (P02768 25-609): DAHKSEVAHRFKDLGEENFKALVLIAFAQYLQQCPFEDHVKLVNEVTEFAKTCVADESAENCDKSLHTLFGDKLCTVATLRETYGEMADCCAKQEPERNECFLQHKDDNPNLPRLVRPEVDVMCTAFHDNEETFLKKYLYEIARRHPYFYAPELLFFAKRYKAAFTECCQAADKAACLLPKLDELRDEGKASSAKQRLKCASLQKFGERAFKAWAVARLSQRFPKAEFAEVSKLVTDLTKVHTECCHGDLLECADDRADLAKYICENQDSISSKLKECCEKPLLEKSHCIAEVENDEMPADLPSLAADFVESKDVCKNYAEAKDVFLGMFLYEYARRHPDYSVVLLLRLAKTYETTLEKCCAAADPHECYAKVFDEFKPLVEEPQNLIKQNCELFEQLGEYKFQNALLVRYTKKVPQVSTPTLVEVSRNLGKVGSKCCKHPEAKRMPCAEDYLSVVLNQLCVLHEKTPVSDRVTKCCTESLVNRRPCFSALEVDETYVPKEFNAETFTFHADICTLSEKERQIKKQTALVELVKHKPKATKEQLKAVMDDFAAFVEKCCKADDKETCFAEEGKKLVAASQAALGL

For the compound `O=C([O-])CN(CCN(CC(=O)[O-])Cc1cc(CCC(=O)NCCCCCC(=O)NCCCC[C@H](NC(=O)N[C@@H](CCC(=O)O)C(=O)O)C(=O)O)ccc1[O-])Cc1cc(CCC(=O)O)ccc1[O-].[68Ga+3].[OH3+]` [[^68Ga]Ga-PSMA-11], the “kidney accumulation of known radiolabeled compound” value in data set [1] is listed as 139 % ID/g.
With `O=C([O-])CN1CCN(C(CCC(=O)NCCCC[C@H](NC(=O)N[C@@H](CCC(=O)O)C(=O)O)C(=O)O)C(=O)[O-])CCN(CC(=O)[O-])CCN(C(CCC(=O)N[C@@H](CCCCNC(=O)CCCc2ccc(I)cc2)C(=O)O)C(=O)[O-])CC1.[90Y+3]` (stereo partly shown) [[^90Y]Y-PSMA-DA1], the “time after administration at which a significant difference in tumor volume from the saline-administered group was observed” value with LNCaP tumor [2] amounted to 9 days. Also, the “body weight of the mice” value in the data set on LNCaP tumor [2] (mouse, in vivo) is reported as “slightly reduced”.
As to `O=C([O-])CN1CCN(C(CCC(=O)NCCCC[C@H](NC(=O)N[C@@H](CCC(=O)O)C(=O)O)C(=O)O)C(=O)[O-])CCN(CC(=O)[O-])CCN(C(CCC(=O)Nc2ccccc2)C(=O)[O-])CC1.[90Y+3]` (stereo partly shown) [[^90Y]Y-PSMA-DB, reference compound], the “time after administration at which a significant difference in tumor volume from the saline-administered group was observed” value in the data set on LNCaP tumor [2] was 33 days.
For the compound `O=C([O-])CN(Cc1cccc(C(=O)[O-])n1)C[C@H](Cc1ccc(NC(=O)[C@H](CCCCNC(=O)CCC(=O)NCCCC[C@H](NC(=O)N[C@@H](CCC(=O)O)C(=O)O)C(=O)O)NC(=O)COCCOCCOCC(=O)N[C@@H](CCCCNC(=O)CCCc2ccc(I)cc2)C(=O)O)cc1)N(CC(=O)[O-])Cc1cccc(C(=O)[O-])n1.[111In+3]` [[^111In]In-Octapa-3], in data set [3] (1 h after administration), the Blood came out at 27.2 ± 2.92 % ID/g, the Brain is 0.40 ± 0.05 % ID/g, the Heart came to 6.53 ± 0.66 % ID/g and the Intestine came to 2.60 ± 0.48 % ID/g. Further, in data set [3] (1 h after administration), the Kidney is on record as 57.1 ± 17.4 % ID/g, the “LNCaP Tumor” value is 7.79 ± 1.11 % ID/g, the Liver turned out to be 4.32 ± 0.40 % ID/g and the Lung amounted to 16.7 ± 1.41 % ID/g. Moreover, in data set [3] (1 h after administration), the Muscle is 1.51 ± 0.23 % ID/g, the Pancreas came out at 2.59 ± 0.26 % ID/g, the Spleen is 8.56 ± 0.95 % ID/g and the “Stomach (% ID)” value came to 0.49 ± 0.04 % ID. Also, in data set [3] (4 h after administration), the Blood is given as 19.3 ± 3.84 % ID/g, the Brain is given as 0.31 ± 0.07 % ID/g, the Heart is on record as 5.98 ± 0.93 % ID/g and the Intestine was found to be 3.23 ± 0.18 % ID/g. In data set [3] (4 h after administration), the Kidney came to 100 ± 6.33 % ID/g, the “LNCaP Tumor” value is on record as 11.3 ± 2.39 % ID/g, the Liver is 3.36 ± 0.39 % ID/g and the Lung was 14.1 ± 2.06 % ID/g. Further, in data set [3] (4 h after administration), the Muscle is listed as 1.26 ± 0.18 % ID/g, the Pancreas was found to be 2.17 ± 0.15 % ID/g, the Spleen was found to be 7.42 ± 0.88 % ID/g and the “Stomach (% ID)” value was 0.78 ± 0.28 % ID. In data set [3] (24 h after administration), the Blood came to 7.20 ± 0.50 % ID/g, the Brain was 0.16 ± 0.01 % ID/g, the Heart was 2.50 ± 0.17 % ID/g and the Intestine turned out to be 1.23 ± 0.28 % ID/g. Besides, in data set [3] (24 h after administration), the Kidney is 26.4 ± 2.50 % ID/g, the “LNCaP Tumor” value was found to be 8.04 ± 0.38 % ID/g, the Liver turned out to be 1.73 ± 0.09 % ID/g and the Lung is 5.85 ± 0.39 % ID/g. In data set [3] (24 h after administration), the Muscle is 0.61 ± 0.04 % ID/g, the Pancreas is on record as 1.24 ± 0.16 % ID/g, the Spleen worked out at 2.87 ± 0.40 % ID/g and the “Stomach (% ID)” value turned out to be 0.25 ± 0.08 % ID. Besides, in data set [3] (48 h after administration), the Blood is recorded as 3.88 ± 1.13 % ID/g, the Brain was determined as 0.12 ± 0.02 % ID/g, the Heart amounted to 1.37 ± 0.18 % ID/g and the Intestine is reported as 0.62 ± 0.14 % ID/g. Also, in data set [3] (48 h after administration), the Kidney was 17.3 ± 5.57 % ID/g, the “LNCaP Tumor” value is recorded as 7.79 ± 2.72 % ID/g, the Liver turned out to be 1.42 ± 0.08 % ID/g and the Lung came to 3.18 ± 0.68 % ID/g. Further, in data set [3] (48 h after administration), the Muscle is on record as 0.26 ± 0.05 % ID/g, the Pancreas stood at 0.60 ± 0.13 % ID/g, the Spleen turned out to be 1.76 ± 0.39 % ID/g and the “Stomach (% ID)” value stood at 0.13 ± 0.04 % ID. Also, in data set [3] (96 h after administration), the Blood worked out at 0.63 ± 0.32 % ID/g, the Brain was found to be 0.07 ± 0.02 % ID/g, the Heart is on record as 0.43 ± 0.17 % ID/g and the Intestine came out at 0.29 ± 0.09 % ID/g. In addition, in data set [3] (96 h after administration), the Kidney turned out to be 4.33 ± 2.06 % ID/g, the “LNCaP Tumor” value was 4.17 ± 0.80 % ID/g, the Liver is recorded as 0.70 ± 0.25 % ID/g and the Lung came to 0.78 ± 0.29 % ID/g. In data set [3] (96 h after administration), the Muscle was found to be 0.08 ± 0.03 % ID/g, the Pancreas was determined as 0.22 ± 0.06 % ID/g, the Spleen was found to be 0.88 ± 0.32 % ID/g and the “Stomach (% ID)” value is reported as 0.06 ± 0.03 % ID. For the same compound, in data set [3] (192 h after administration), the Blood is 0.03 ± 0.00 % ID/g, the Brain turned out to be 0.02 ± 0.01 % ID/g, the Heart is reported as 0.12 ± 0.02 % ID/g and the Intestine came to 0.05 ± 0.01 % ID/g. In data set [3] (192 h after administration), the Kidney is on record as 0.27 ± 0.02 % ID/g, the “LNCaP Tumor” value is recorded as 1.31 ± 0.49 % ID/g, the Liver came to 0.35 ± 0.04 % ID/g and the Lung came out at 0.12 ± 0.04 % ID/g. Also, in data set [3] (192 h after administration), the Muscle was found to be 0.01 ± 0.02 % ID/g, the Pancreas is reported as 0.07 ± 0.01 % ID/g, the Spleen is listed as 0.31 ± 0.11 % ID/g and the “Stomach (% ID)” value came out at 0.01 ± 0.00 % ID. Further, in data set [4], the “radioactivity in the eluate (in words)” value was “significantly higher”.
Turning to `O=C([O-])CN1CCN(C(CCC(=O)NCCCC[C@H](NC(=O)N[C@@H](CCC(=O)O)C(=O)O)C(=O)O)C(=O)[O-])CCN(CC(=O)[O-])CCN(C(CCC(=O)N[C@@H](CCCCNC(=O)CCCc2ccc(I)cc2)C(=O)O)C(=O)[O-])CC1.[225Ac+3]` (stereo partly shown) [[^225Ac]Ac-PSMA-DA1], in the data set with LNCaP tumor [5], the body weight reduction result is reported as “transient”, the “growth suppression continuously observed until” value amounted to 6 weeks and the “tumor growth compared with the control group” value was “significantly suppressed”.
For the compound `O=C([O-])CN1CCN(C(CCC(=O)NCCCC[C@H](NC(=O)N[C@@H](CCC(=O)O)C(=O)O)C(=O)O)C(=O)[O-])CCN(CC(=O)[O-])CCN(C(CCC(=O)Nc2ccccc2)C(=O)[O-])CC1.[225Ac+3]` (stereo partly shown) [[^225Ac]Ac-PSMA-DB, reference compound], in the data set on LNCaP tumor [5], the body weight reduction entry was “no sign of recovery” and the “tumor growth compared with the control group” value was “significantly suppressed”.
